{"source": "patent US20240238232A1", "about": "“COMPOSITIONS AND METHODS FOR THE REDUCTION OR TREATMENT OF INSULIN RESISTANCE AND METABOLIC CONDITIONS” (AXCELLA HEALTH INC., priority 2018, published 2024)", "format_in_all_cases": "in vivo", "key": {"FATZO mouse model [1]": {"tested_on": "FATZO mouse model", "experiment": "Body weight, liver weight and clinical observations in FATZO mice on WDF, Example 5", "details": "oral gavage 4 weeks, LIVRQNAC 3000 mg/kg, LIVRQNAC+G 3,885 mg/kg, LRQNAC 2,469 mg/kg BID, OCA QD", "text": "(§1) NASH was induced in 60 male FATZO mice by a western diet (Research Diet #D12079B; fat 40% kcal, protein 17% kcal, carbohydrate 43% kcal) supplemented with 500 fructose in the drinking water (WDF) during a 16 week induction phase. Diets and water were available ad libitum. Littermate control male FATZO mice fed with a control diet (n=6, Purina #5008; fat 17% kcal, protein 27% kcal, carbohydrate 56% kcal) and sterile water were set up for control purpose. Mice were housed in plastic cages with microisolator. Sterilized bedding was replaced once a week. Mice were housed three per cage and maintained on a twelve hour light cycle throughout study duration. Room temperature was monitored daily and maintained at 22-25° C. Body weight was recorded every week during the induction phase. […]\n(§2) […], […]+G, LRQNAC, OCA and Vehicle were administered by oral gavage at a volume of 10 mL/kg throughout the study. Dosages were calculated by daily body weight. […]\n(§3) The viability, clinical signs and behavior were monitored daily. Body weight was recorded daily during the dosing period. […]\nAnimals were anesthetized with CO2 inhalation and exsanguinated via cardiac puncture for euthanasia. […] Organ weights (total liver, gonadal fat pads) were recorded. […]"}, "FATZO mouse model [2]": {"tested_on": "FATZO mouse model", "experiment": "Blood glucose in FATZO mice on WDF, Example 5", "details": "oral gavage 4 weeks, LIVRQNAC 3000 mg/kg, LIVRQNAC+G 3,885 mg/kg, LRQNAC 2,469 mg/kg BID, OCA QD", "text": "(§4) NASH was induced in 60 male FATZO mice by a western diet (Research Diet #D12079B; fat 40% kcal, protein 17% kcal, carbohydrate 43% kcal) supplemented with 500 fructose in the drinking water (WDF) during a 16 week induction phase. Diets and water were available ad libitum. Littermate control male FATZO mice fed with a control diet (n=6, Purina #5008; fat 17% kcal, protein 27% kcal, carbohydrate 56% kcal) and sterile water were set up for control purpose. Mice were housed in plastic cages with microisolator. Sterilized bedding was replaced once a week. Mice were housed three per cage and maintained on a twelve hour light cycle throughout study duration. Room temperature was monitored daily and maintained at 22-25° C. Body weight was recorded every week during the induction phase.\nFollowing 16 weeks diet induction, 6 mice remained on control diet (group 1, Control) while 60 induced mice were randomized on body weight and plasma glucose (fed) for assignment to the following treatments. FATZO mice were administered with test articles starting at 16 weeks post western diet NASH induction for 4 weeks. […]\nas §2, §3"}, "FATZO mouse model [3]": {"tested_on": "FATZO mouse model", "experiment": "Liver histology: NAFLD activity score, steatosis, inflammation, ballooning in FATZO mice on WDF, Example 5", "details": "4 weeks", "text": "as §4\n(§5) Following 16 weeks diet induction, 6 mice remained on control diet (group 1, Control) while 60 induced mice were randomized on body weight and plasma glucose (fed) for assignment to the following treatments. FATZO mice were administered with test articles starting at 16 weeks post western diet NASH induction for 4 weeks. Test articles were administered by oral gavage. Animals were euthanized at 20 weeks post western diet NASH induction, and tissues were harvested for analysis.\n(§6) […], […]+G, LRQNAC, OCA and Vehicle were administered by oral gavage at a volume of 10 mL/kg throughout the study. Dosages were calculated by daily body weight. […], […]+G, LRQNAC, and Vehicle were administered twice per day (BID), while OCA was administered once a day (QD) in the morning. Mice receiving OCA once per day (QD), and one vehicle QD. Doses were administered by oral gavage at 0700 and 1800 by oral gavage for 4 weeks.\nThe liver tissues were fixed in Bouin's solution at 4° C. for 24 hours followed by baths of standard concentrations of alcohol then xylene to prepare the tissues for paraffin embedding.\nAfter being embedded in paraffin and cooled, five-micron sections were cut and stained for routine H&E and Picric Sirius Red. A section of both right and left lobes of the livers were frozen in OCT for analysis of lipid content with Oil-Red-) staining. The Aperio whole slide digital imaging system (Scan Scope C S, Vista, CA) was used for imaging. All slides were imaged at 20×. The scan time ranged from 1.5 minutes to a maximum time of 2.25 minutes. The whole images were housed and stored in their Spectrum software system and images were shot from the whole slides.\nThe livers were evaluated using the NASH liver criteria for scoring. In this mouse study, one cross section of liver for each case was analyzed with the NASH score system. According to the published NASH CRN Scoring System, this scoring system comprises of NAFLD Activity Score (NAS), fibrosis stage and identification of NASH by pattern recognition. The NAS can range from 0 to 8 and is calculated by the sum of scores of steatosis (0-3), lobular inflammation (0-3) and hepatocyte ballooning (0-2) from H&E stained sections. Fibrosis was scored (0-4) from picrosirius red stained slides. […] Steatosis, lobular inflammation, hepatocyte. balloon degeneration, fibrosis, NAS and the presence of NASH by pattern recognition were systematically assessed. In this study we evaluated one total cross section of liver per mouse in this study. […] The pathology score was determined as 0, +1, +2, or +3. The lesions were scored on location (periportal, centrilobular, and mid zonal) and fat accumulation (focal, periportal, and/or centrilobular). […]"}, "FATZO mouse model [4]": {"tested_on": "FATZO mouse model", "experiment": "Liver triglyceride and cholesterol content in FATZO mice on WDF, Example 5", "details": "4 weeks", "text": "as §4, §5, §6\nLiver triglyceride and cholesterol content were similarly elevated after WDF feeding compared to vehicle treated animals fed control diet (liver triglyceridep<00.0040; liver cholesterol: p<0.0001). Among animals fed WDF, there were no significant differences in liver triglyceride (p<0.1206) when compared to vehicle for any treatment group. […]"}, "FATZO mouse model [5]": {"tested_on": "FATZO mouse model", "experiment": "Liver fibrosis score and Sirius Red collagen staining in FATZO mice on WDF, Example 5", "details": "oral, 4 weeks, LIVRQNAC + G 3885 mg/kg, LRQNAC 2469 mg/kg, OCA 30 mg/kg/day", "text": "as §1, §2\nThe livers were evaluated using the NASH liver criteria for scoring. In this mouse study, one cross section of liver for each case was analyzed with the NASH score system. […] The NAS can range from 0 to 8 and is calculated by the sum of scores of steatosis (0-3), lobular inflammation (0-3) and hepatocyte ballooning (0-2) from H&E stained sections. Fibrosis was scored (0-4) from picrosirius red stained slides. […]"}, "[6]": {"details": "oral, LIVRQNAC + G 3885 mg/kg, LRQNAC 2469 mg/kg, OCA 30 mg/kg/day"}, "[7]": {"details": "score 0-3, oral, LIVRQNAC + G 3885 mg/kg, LRQNAC 2469 mg/kg, OCA 30 mg/kg/day"}}}
{"smiles": "CC[C@H]1[C@@H](O)[C@@H]2[C@H](CC[C@]3(C)[C@@H]([C@H](C)CCC(=O)O)CC[C@@H]23)[C@@]2(C)CC[C@@H](O)C[C@@H]12", "note": "[OCA, 6α-ethyl-chenodeoxycholic acid]", "values": [{"measurement": "Liver weight (% body weight)", "setting": "FATZO mouse model [1]", "result": "6.81±0.2", "unit": "% body weight"}, {"measurement": "Average blood glucose over the dosing period", "setting": "FATZO mouse model [2]", "result": "169.7 ± 6.3", "unit": "mg/dL"}, {"measurement": "NAFLD activity score (NAS) compared to vehicle", "setting": "FATZO mouse model [3]", "result": "no significant effect"}, {"measurement": "Liver Pathology NAS", "setting": "FATZO mouse model [3]; [6]", "result": "3.72 ± 0.147"}, {"measurement": "Liver Pathology Ballooning", "setting": "FATZO mouse model [3]; score 0-2, oral, LIVRQNAC + G 3885 mg/kg, LRQNAC 2469 mg/kg, OCA 30 mg/kg/day", "result": "0.94 ± 0.056"}, {"measurement": "Liver Pathology Inflammation", "setting": "FATZO mouse model [3]; [7]", "result": "1.0 ± 0.0"}, {"measurement": "Liver Pathology Steatosis", "setting": "FATZO mouse model [3]; [7]", "result": "1.78 ± 0.147"}, {"measurement": "Reduction of liver cholesterol content compared to vehicle", "setting": "FATZO mouse model [4]", "result": 32, "unit": "%"}, {"measurement": "Liver Cholesterol", "setting": "FATZO mouse model [4]; [6]", "result": "5.63 ± 0.495"}, {"measurement": "Liver Triglyceride", "setting": "FATZO mouse model [4]; [6]", "result": "49.81 ± 1.63"}, {"measurement": "Fibrosis (score)", "setting": "FATZO mouse model [5]", "result": "0.67 ± 0.167"}, {"measurement": "Sirius Red (collagen staining)", "setting": "FATZO mouse model [5]", "result": "1.59 ± 0.36"}]}
